Several values for one entry are separate records, joined by “and”; a condition that tells them apart may be missing. Identical values can stand only once.
Columns and labels:
CCR3 = CCR3 (Homo sapiens, UniProt P51677); experiment: Inhibition of ligand binding to CCR3
[1] = system: STAM mouse model of Non-alcoholic Steatohepatitis; experiment: STAM mouse model of NASH, week 9 (anti-NASH/fibrosis effects); type: in vivo; conditions: for Sirius red-positive area (fibrosis area): perivascular space included; for Modified Sirius red-positive area: perivascular space subtracted
Procedure: NASH was induced in male mice by a single injection of 200 μg streptozotocin 2 days after birth (causing impaired glucose control), followed by a high fat diet from 4 weeks of age. […] Animals were sacrificed at 9 weeks of age, and biochemical, gene expression, and histologic evaluations of the liver were conducted.

[2] = system: unilateral ureter occlusion (UUO) renal fibrosis; experiment: Mouse UUO model of renal fibrosis; type: in vivo, CD-1 mice
Procedure: Test animals were allocated to weight-matched treatment groups on the day prior to the surgical procedure (Day-1). Male CD-1 mice (N=51; age, 7-8 weeks) underwent either sham surgery or total ligation of the right ureter, i.e. UUO, via aseptic laparotomy (FIG. 12). […] Another group received the anti-transforming growth factor TGF-β1 antibody, compound 1D11 (positive control) at 3 mg/kg/day from Days-1 to 4, injected intraperitoneally once daily, and vehicle control from Days 0 to 5. […] On Day 5, animals were anaesthetized, blood and tissues were collected prior to sacrifice.
Study endpoints included: a) body and kidney weights; b) fibrosis in obstructed kidney evaluated via histological quantitative image analysis of picrosirius red staining (ten images/depth/kidney obtained and assessed in a blinded fashion using light microscopy [at 200×] to enable sampling of 60-70% of the renal cortical area) and quantified by a composite Collagen Volume Fraction (CVF [% total area imaged]) score expressed as the average positive stain across three anatomically distinct ([…] apart) tissue sections, or depths, from the obstructed kidney; c) hydroxyproline content of frozen renal cortical tissue biopsies as assessed by biochemical analyses; d) mRNA expression of profibrotic and inflammatory biomarkers (including MCP-1, Collagen 1a1, Collagen 3a1, TGF-β1, Fibronectin-1, α-smooth muscle actin (α-SMA) and connective tissue growth factor-1 (CTGF-1); assessed via Luminex® (Life Technologies™, Carlsbad, Calif., USA) assay with relative expression normalised to HPRT (hypoxanthine phosphoribosyltransferase).
Data are expressed as mean±standard error of mean (SEM). Statistical analyses were performed using GraphPad Prism® (GraphPad Software, Inc., San Diego, Calif., USA). Treatment differences between sham-surgery+vehiclecontrol and UUO+vehicle-control groups, and between UUO+vehicle-control and UUO+compound-1D11 (positive control) groups, were analysed by unpaired t-Test. Treatment differences between UUO+vehicle-control and CVC-dose groups were analysed by one-way ANOVA (analysis of variance) with Dunnett's test (post-hoc).

[3] = system: CC14-induced acute liver injury; experiment: CC14-induced acute liver injury in mice; type: in vivo, C57BL/6J mice; conditions: CVC 100 mg/kg oral, 36h after CC14; vehicle 5.49%±0.49
Procedure: Liver injury and immune cell phenotypes were analyzed. For mechanistic studies, monocyte-derived macrophage subsets and resident macrophages (Kupffer cells) were sorted by FACS from injured livers and subjected to array-based Nanostring gene expression analysis.

CCR7 = CCR7 (Homo sapiens, UniProt P32248); experiment: Inhibition of ligand binding to CCR7
[4] = system: thioacetamide (TAA)-induced hepatic fibrosis; experiment: Rat model of thioacetamide-induced liver fibrosis and cirrhosis; type: in vivo, Sprague-Dawley rats; conditions: for Reduction of fibrosis (collagen morphometry): weeks 0-8
Procedure: Fibrosis was induced in male Sprague-Dawley rats by intraperitoneal administration of TAA 150 mg/kg 3 times/week for 8 weeks. […] Biochemical, gene expression and histologic evaluations of the liver were conducted.

HIV-1 = experiment: Ex vivo intracellular HIV DNA qPCR in PBMCs of Study 202 participants; design: species or system human; conditions: EFV 600 mg, week 24
Procedure: Intracellular DNA qPCR. Total DNA was extracted, quantified, and stored at −80 C.
The Mann-Whitney test was used to analyze in vitro intracellular HIV DNA levels for all three treatment groups. All data were analyzed using Prism 5 software.

[5] = CVC-high 100 mg/kg/day, week 9, listed as Cenicriviroc
[6] = CVC-low 20 mg/kg/day, week 9, listed as Cenicriviroc

Chain of CCR3 (P51677 whole entry): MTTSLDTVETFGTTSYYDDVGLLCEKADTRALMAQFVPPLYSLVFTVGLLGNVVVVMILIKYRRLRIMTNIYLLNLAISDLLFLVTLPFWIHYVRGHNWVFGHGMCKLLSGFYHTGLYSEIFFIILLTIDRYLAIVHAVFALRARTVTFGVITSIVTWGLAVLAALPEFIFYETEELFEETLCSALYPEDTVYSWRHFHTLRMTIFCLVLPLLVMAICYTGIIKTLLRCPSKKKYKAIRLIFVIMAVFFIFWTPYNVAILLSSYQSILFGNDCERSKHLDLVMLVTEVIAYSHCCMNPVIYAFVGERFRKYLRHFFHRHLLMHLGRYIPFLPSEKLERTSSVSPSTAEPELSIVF
Chain of CCR7 (P32248 25-378): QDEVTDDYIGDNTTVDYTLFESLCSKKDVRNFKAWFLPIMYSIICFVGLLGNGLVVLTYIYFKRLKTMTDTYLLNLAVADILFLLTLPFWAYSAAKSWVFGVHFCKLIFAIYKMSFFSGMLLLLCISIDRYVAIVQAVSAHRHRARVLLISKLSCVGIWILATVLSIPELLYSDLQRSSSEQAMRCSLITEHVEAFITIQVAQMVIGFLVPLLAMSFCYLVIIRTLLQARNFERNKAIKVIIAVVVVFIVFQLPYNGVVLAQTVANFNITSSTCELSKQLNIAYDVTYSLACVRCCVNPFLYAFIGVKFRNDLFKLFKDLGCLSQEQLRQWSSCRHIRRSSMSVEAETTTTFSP

`CCCCOCCOc1ccc(-c2ccc3c(c2)/C=C(/C(=O)Nc2ccc([S@@+]([O-])Cc4cncn4CCC)cc2)CCCN3CC(C)C)cc1` [CVC, (S)-8-[4-(2-Butoxyethoxy)phenyl]-1-isobutyl-N-(4-{[(1-propyl-1H-imidazol-5-yl)methyl]sulfinyl}phenyl)-1,2,3,4-tetrahydro-1-benzazocine-5-carboxamide] was tested, and the “Inhibition of ligand binding to CCR3” value (CCR3) was “only weakly inhibited”, the “Effect on body or liver weight, whole blood glucose, or liver triglycerides” value ([1]; 20 and 100 mg/kg/day, week 9) was “no effect” and the “Decrease of collagen type 1 mRNA in whole liver lysates (real-time RT-PCR)” value ([1]; CVC 20 and 100 mg/kg/day, week 9) was 27-37%. For the same molecule, the Body weight ([1]; CVC-high 100 mg/kg/day, week 9) was 18.7 ± 0.9 g, the “F4/80-positive area (inflammation area)” value ([1]; CVC-high 100 mg/kg/day, week 9) was 4.96±0.60% and the “F4/80 and CD16/32-positive cells” value ([1]; CVC-high 100 mg/kg/day, week 9) was 41.5±8.2%. The “F4/80 and CD206-positive cells” value ([1]; CVC-high 100 mg/kg/day, week 9) was 33.1±3.0%, the Liver hydroxyproline ([1]; CVC-high 100 mg/kg/day, week 9) was 0.62±0.09 μg/mg total protein and the Liver triglyceride ([1]; CVC-high 100 mg/kg/day, week 9) was 51.7±14.1 mg/g liver. For the same molecule, the Liver weight ([1]; CVC-high 100 mg/kg/day, week 9) was 1307 ± 119 mg, the “NAFLD Activity Score (NAS)” value ([1]; CVC-high 100 mg/kg/day, week 9) was 3.7±0.8 and the “Oil red-positive area (fat deposition area)” value (“Oil red-positive area” below) ([1]; CVC-high 100 mg/kg/day, week 9) was 7.23±3.59%. For the same molecule, the “Plasma ALT” value ([1]; CVC-high 100 mg/kg/day, week 9) was 51±13 U/L and 52±13 U/L, the “Plasma MCP-1” value ([1]; CVC-high 100 mg/kg/day, week 9) was 91 ± 14 pg/mL and the “Plasma MIP-1β” value ([1]; CVC-high 100 mg/kg/day, week 9) was 20 ± 4 pg/mL. It also gave a TUNEL-positive cells ([1]; CVC-high 100 mg/kg/day, week 9) of 39.0±5.3%, a Whole blood glucose ([1]; CVC-high 100 mg/kg/day, week 9) of 585 ± 91 mg/dL and a Body weight [1, 5] of 18.7 ± 0.9 g. The “F4/80-positive area (inflammation area)” value [1, 5] was 4.96 ± 0.60%, the “F4/80 and CD16/32-positive cells” value [1, 5] was 41.5 ± 8.2% and the “F4/80 and CD206-positive cells” value [1, 5] was 33.1 ± 3.0%. For the same molecule, the Liver hydroxyproline [1, 5] was 0.62 ± 0.09 μg/mg total protein, the Liver triglyceride [1, 5] was 51.7 ± 14.1 mg/g liver and the Liver weight [1, 5] was 1307 ± 119 mg. The “NAFLD Activity Score (NAS)” value [1, 5] was 3.7 ± 0.8, the “Oil red-positive area” value [1, 5] was 7.23 ± 3.59% and the “Plasma ALT” value [1, 5] was 52 ± 13 U/L. For the same molecule, the “Plasma MCP-1” value [1, 5] was 91 ± 14 pg/mL, the “Plasma MIP-1β” value [1, 5] was 20 ± 4 pg/mL and the TUNEL-positive cells [1, 5] was 39.0 ± 5.3%. For the same molecule, the Whole blood glucose [1, 5] was 585 ± 91 mg/dL, the “Sirius red-positive area (fibrosis area)” value [1, 5] was 0.64 ± 0.19% and the “Modified Sirius red-positive area” value [1, 5] was 0.20 ± 0.06%. The “Modified positive area (%), per mouse” value ([1]; CVC-high, Sirius red, mice 301-306 (raw data), listed as Cenicriviroc) was 0.12% and 0.26% and 0.17% and 0.27% and 0.18% and 0.20%, the “Modified positive area (%), individual photo” value ([1]; CVC-high, Sirius red, mice 301-306, photos 1-5 (raw data), listed as Cenicriviroc) was 0.17% (2×) and 0.28% (2×) and 0.22% (2×) and 0.08% (3×) and 0.05% and 0.09% (2×) and 0.32% and 0.07% (3×) and 0.16% and 0.20% (2×) and 0.68% and 0.23% (2×) and 0.27% and 0.12% and 0.11% and 0.67% and 0.26% and 0.06% and 0.10% and 0.41% and the “Number of animals with Hepatocyte ballooning score 0” value ([1]; CVC-high, week 9, n=6) was 1. The “Number of animals with Hepatocyte ballooning score 1” value ([1]; CVC-high, week 9, n=6) was 2, the “Number of animals with Hepatocyte ballooning score 2” value ([1]; CVC-high, week 9, n=6) was 3 and the “Number of animals with Lobular inflammation score 1” value ([1]; CVC-high, week 9, n=6) was 3. The “Number of animals with Lobular inflammation score 2” value ([1]; CVC-high, week 9, n=6) was 3, the “Number of animals with Steatosis score 1” value ([1]; CVC-high, week 9, n=6) was 5 and the Body weight ([1]; CVC-low 20 mg/kg/day, week 9) was 19.5 ± 2.0 g. The “F4/80-positive area (inflammation area)” value ([1]; CVC-low 20 mg/kg/day, week 9) was 4.77±1.02%, the “F4/80 and CD16/32-positive cells” value ([1]; CVC-low 20 mg/kg/day, week 9) was 38.7±7.6% and the “F4/80 and CD206-positive cells” value ([1]; CVC-low 20 mg/kg/day, week 9) was 34.7±6.3%. It also gave a Liver hydroxyproline ([1]; CVC-low 20 mg/kg/day, week 9) of 0.63±0.05 μg/mg total protein, a Liver triglyceride ([1]; CVC-low 20 mg/kg/day, week 9) of 48.5±16.1 mg/g liver and a Liver weight ([1]; CVC-low 20 mg/kg/day, week 9) of 1334 ± 99 mg. For the same molecule, the “NAFLD Activity Score (NAS)” value ([1]; CVC-low 20 mg/kg/day, week 9) was 4.0±0.6, the “Oil red-positive area” value ([1]; CVC-low 20 mg/kg/day, week 9) was 6.51±3.88% and the “Plasma ALT” value ([1]; CVC-low 20 mg/kg/day, week 9) was 58±12 U/L. The “Plasma MCP-1” value ([1]; CVC-low 20 mg/kg/day, week 9) was 68 ± 16 pg/mL, the “Plasma MIP-1β” value ([1]; CVC-low 20 mg/kg/day, week 9) was 18 ± 2 pg/mL and the TUNEL-positive cells ([1]; CVC-low 20 mg/kg/day, week 9) was 43.3±2.9%. The Whole blood glucose ([1]; CVC-low 20 mg/kg/day, week 9) was 585 ± 91 mg/dL, the Body weight [1, 6] was 19.5 ± 2.0 g and the “F4/80-positive area (inflammation area)” value [1, 6] was 4.77 ± 1.02%. The “F4/80 and CD16/32-positive cells” value [1, 6] was 38.7 ± 7.6%, the “F4/80 and CD206-positive cells” value [1, 6] was 34.7 ± 6.3% and the Liver hydroxyproline [1, 6] was 0.63 ± 0.05 μg/mg total protein. For the same molecule, the Liver triglyceride [1, 6] was 48.5 ± 16.1 mg/g liver, the Liver weight [1, 6] was 1334 ± 99 mg and the “NAFLD Activity Score (NAS)” value [1, 6] was 4.0 ± 0.6. For the same molecule, the “Oil red-positive area” value [1, 6] was 6.51 ± 3.88%, the “Plasma ALT” value [1, 6] was 58 ± 12 U/L and the “Plasma MCP-1” value [1, 6] was 68 ± 16 pg/mL. For the same molecule, the “Plasma MIP-1β” value [1, 6] was 18 ± 2 pg/mL, the TUNEL-positive cells [1, 6] was 43.3 ± 2.9% and the Whole blood glucose [1, 6] was 585 ± 91 mg/dL. For the same molecule, the “Sirius red-positive area (fibrosis area)” value [1, 6] was 0.66 ± 0.16%, the “Modified Sirius red-positive area” value [1, 6] was 0.29 ± 0.14% and the “Number of animals with Hepatocyte ballooning score 1” value ([1]; CVC-low, week 9, n=6) was 3. For the same molecule, the “Number of animals with Hepatocyte ballooning score 2” value ([1]; CVC-low, week 9, n=6) was 3, the “Number of animals with Lobular inflammation score 1” value ([1]; CVC-low, week 9, n=6) was 3 and the “Number of animals with Lobular inflammation score 2” value ([1]; CVC-low, week 9, n=6) was 3. The “Number of animals with Steatosis score 1” value ([1]; CVC-low, week 9, n=6) was 6, the “Increase in plasma monocyte chemotactic protein-1 levels” value ([1]; high dose 100 mg/kg/day, week 9) was 1.5 fold and the “Increase in plasma monocyte chemotactic protein-1 levels” value ([1]; low dose 20 mg/kg/day, week 9) was 1.1 fold. The “Effect on body weight” value ([2]; CVC 7 mg/kg/day, Day 5) was “no effect on body weight”, the “Outcome of the 100 mg/kg/day group” value ([2]; CVC 100 mg/kg/day, N=9, after UUO surgery) was “terminated early due to moribundity” and the “Effect on UUO-induced increase in obstructed kidney hydroxyproline content” value ([2]; CVC 7 and 20 mg/kg/day) was “Neither dose of CVC tested affected UUO-induced increases”. The “Effect on UUO-induced Collagen 1a1, Collagen 3a1, TGF-β1 and Fibronectin-1 mRNA expression” value ([2]; obstructed kidney cortex) was “did not reach statistical significance”, the “Effect on UUO-induced MCP-1, α-SMA and CTGF-1 mRNA expression” value ([2]; obstructed kidney cortex) was “did not have significant effects” and the “Ly6C+ monocyte-derived macrophages in liver (% of liver leukocytes)” value [3] was 0.95%±0.14. The “Inhibition of ligand binding to CCR7” value (CCR7) was “did not inhibit”, the “Reduction of collagen type 1 protein levels” value ([4]; Group 1a: 30 mg/kg/day) was 30% and the “Reduction of α-SMA” value ([4]; Group 1a: 30 mg/kg/day) was 17%. For the same molecule, the “Reduction of fibrosis (collagen morphometry)” value ([4]; Group 1a: 30 mg/kg/day concurrently with TAA) was 49%, the “Reduction of collagen type 1 protein levels” value ([4]; Group 1b: 100 mg/kg/day) was 12% and the “Reduction of α-SMA” value ([4]; Group 1b: 100 mg/kg/day) was 22%. The “Reduction of fibrosis (collagen morphometry)” value ([4]; Group 1b: 100 mg/kg/day concurrently with TAA) was 38%, the Reduction in collagen ([4]; Group 2a: 30 mg/kg/day, weeks 4-8 (emerging fibrosis)) was 36% and the “Effect on fibrogenic gene expression or fibrosis” value ([4]; Group 3: weeks 8-12, cirrhosis present) was “no significant effect”.

For `O=C1Nc2ccc(Cl)cc2[C@@](C#CC2CC2)(C(F)(F)F)O1` [EFV, efavirenz, reference compound], the “Full-length intracellular HIV DNA, mean fold-change from baseline” value (HIV-1) was 0.825 fold and the “Strong-stop intracellular HIV DNA, mean fold-change from baseline” value (HIV-1) was 1.01 fold.

From patent US20180110754A1, “CENICRIVIROC FOR THE TREATMENT OF FIBROSIS” (Tobira Therapeutics, Inc., priority 2015, published 2018)
